The assay deals with human IgG in mouse serum. In words: Immunoglobulin G (IgG) mRNA in vivo evaluation using lipid nanoparticle compositions. Further details: species or system mice. The following applies: LNP with the cationic lipid, tail vein injection, μg IgG/mL serum 24 hours after administration; for Serum IgG (μg/mL) @ 0.3 mg/kg: 0.3 mg mRNA/kg; for Serum IgG (μg/mL) @ 1.0 mg/kg: 1.0 mg mRNA/kg. As to the method:
A lipid of Formula (I), DSPC, cholesterol and PEG-lipid of Formula (II) are solubilized in ethanol at a molar ratio of 50:10:38.5:1.5 or 47.5:10:40.7:1.8. Lipid nanoparticles (LNP) are prepared at a total lipid to mRNA weight ratio of approximately 10:1 to 40:1. Briefly, the mRNA is diluted to 0.2 mg/mL in 10 to 50 mM citrate buffer, pH 4 to 6 or 10 to 25 mM acetate buffer, pH 4 to 6. Syringe pumps are used to mix the ethanolic lipid solution with the mRNA aqueous solution at a ratio of about 1:5 to 1:3 (vol/vol) with total flow rates above 15 mL/min. The ethanol is then removed, and the external buffer replaced with PBS by dialysis. Finally, the lipid nanoparticles are filtered through a 0.2 µm pore sterile filter.
Studies are performed in 6-8-week-old CD-1/ICR mice (Charles River or Inotiv) according to guidelines established by an institutional animal care committee (ACC) and the Canadian Council on Animal Care (CCAC). Varying doses of mRNA-lipid nanoparticle are systemically administered by tail vein injection and animals euthanized at a specific time point (e.g., 24 hours) post-administration. The whole blood is collected, and the serum subsequentially separated by centrifuging the tubes of the whole blood at 2000×g for 10 minutes at 4° C. and stored at −80° C. until use for analysis.
For immunoglobulin G (IgG) ELISA (Life Diagnostics Human IgG ELISA kit), the serum samples are diluted at 100 to 20,000 folds with 1× diluent solution. 100 μL of diluted serum is dispensed into anti-human IgG coated 96-well plate in duplicate alongside human IgG standards and incubated in a plate shaker at 150 rpm at 25° C. for 45 minutes. The wells are washed 5 times with 1× wash solution using a plate washer (400 μL/well). 100 μL of HRP conjugate is added into each well and incubated in a plate shaker at the same condition above. The wells are washed 5 times again with 1× wash solution using a plate washer (400 μL/well). 100 μL of TMB reagent is added into each well and incubated in a plate shaker at the same condition above. The reaction is stopped by adding 100 μL of Stop solution to each well. The absorbance is read at 450 nm (A450) with a microplate reader. The amount of human IgG in mouse serum is determined by plotting A450 values for the assay standard against human IgG concentration.
Representative compounds of the disclosure shown in Table 2 were formulated using the following molar ratio: 50% cationic lipid/10% distearoylphosphatidylcholine (DSPC)/38.5% Cholesterol/1.5% PEG lipid 2-[2-(ω-methoxy(polyethyleneglycohooo)ethoxy]-N,N-ditetradecylacetamide) or 47.5% cationic lipid/10% DSPC/40.7% Cholesterol/1.8% PEG lipid. Relative activity was determined by measuring the amount of human IgG […]. The activity was compared at a dose of 1.0 or 0.3 mg mRNA/kg and expressed as ng luciferase/g liver measured 4 hours after administration, as described in Example 1 or as μg IgG/mL serum measured 24 hours after administration, as described in Example 2. Compound numbers in Table 2 refer to the compound numbers of Table 1.

We go through 19 compounds from patent publication US20250025427A1, “MIXED AMIDE ESTER CONTAINING LIPIDS FOR USE IN LIPID NANOPARTICLES” (Acuitas Therapeutics, Inc., priority 2023, published 2025).

Molecules are shown by their SMILES.

Turning to `CCCCCCCCC(CCCCCC)COC(=O)CCCCCCCNC(=O)CCCCCCCCCN(C)CCCCCCCCCC(=O)NCCCCCCCC(=O)OCC(CCCCCC)CCCCCCCC` (centres unmarked) [Compound I-2, Bis(2-Hexyldecyl) 8,8′-((10,10′-(Methylazanediyl)Bis(Decanoyl))Bis(Azanediyl))Dioctanoate], the “Serum IgG (μg/mL) @ 0.3 mg/kg” value is 70.7 ± 11.3 µg/mL and the “Serum IgG (μg/mL) @ 1.0 mg/kg” value was 369.6 ± 59.4 µg/mL.

As to `CCCCCCCCC(CCCCCC)COC(=O)CCCCCCCC(=O)N(CCCCCC)CCCCCCN(C)CCCCCCN(CCCCCC)C(=O)CCCCCCCC(=O)OCC(CCCCCC)CCCCCCCC` (centres unmarked) [Compound I-5, Bis(2-Hexyldecyl) 9,9′-(((Methylazanediyl)Bis(Hexane-6,1-Diyl))Bis(Hexylazanediyl))Bis(9-Oxononanoate)], the “Serum IgG (μg/mL) @ 0.3 mg/kg” value is 57.5 ± 8.4 µg/mL.

In the case of `CCCCCCCCC(CCCCCC)COC(=O)CCCCCNC(=O)CCCCCCCN(C)CCCCCCCC(=O)N(CCCCCC)CCCCCC(=O)OCC(CCCCCC)CCCCCCCC` (centres unmarked) [Compound I-11, 2-Hexyldecyl 6-(8-((8-(Hexyl(6-((2-Hexyldecyl)Oxy)-6-Oxohexyl)Amino)-8-Oxooctyl)(Methyl)Amino)Octanamido)Hexanoate], the “Serum IgG (μg/mL) @ 0.3 mg/kg” value was determined as 35.6 ± 5.5 µg/mL.

On to `CCCCCCCCC(CCCCCC)COC(=O)CCCCCN(CCCCCC)C(=O)CCCCCCCN(CCCCCCCC(=O)N(CCCCCC)CCCCCC(=O)OCC(CCCCCC)CCCCCCCC)[C@H]1CC[C@@H](O)CC1` (stereo partly drawn) [Compound I-12, Rel-Bis(2-Hexyldecyl) 6,6′-((8,8′-(((1R,4R)-4-Hydroxycyclohexyl)Azanediyl)Bis(Octanoyl))Bis(Hexylazanediyl))Dihexanoate], for which the “Serum IgG (μg/mL) @ 0.3 mg/kg” value is 29.6 ± 12.7 µg/mL.

Regarding `CCCCCCCCC(CCCCCC)C(=O)OCCCCCCCCC(=O)N(CCCCCC)CCCCCCN(C)CCCCCCN(CCCCCC)C(=O)CCCCCCCCOC(=O)C(CCCCCC)CCCCCCCC` (centres unmarked) [Compound I-13, (((methylazanediyl)bis(hexane-6,1-diyl))bis(hexylazanediyl))bis(9-oxononane-9,1-diyl) bis(2-hexyldecanoate)], the “Serum IgG (μg/mL) @ 0.3 mg/kg” value turned out to be 11.3 ± 4.7 µg/mL.

For the compound `CCCCCCCCC(CCCCCC)COC(=O)CCCCCCN(CCCCCC)C(=O)CCCCCCCN(C)CCCCCCCC(=O)N(CCCCCC)CCCCCCC(=O)OCC(CCCCCC)CCCCCCCC` (centres unmarked) [Compound I-14, Bis(2-Hexyldecyl) 7,7′-((8,8′-(Methylazanediyl)Bis(Octanoyl))Bis(Hexylazanediyl))Diheptanoate], the “Serum IgG (μg/mL) @ 0.3 mg/kg” value was 33.4 ± 7.7 µg/mL.

Turning to `CCCCCCCCC(CCCCCC)COC(=O)CCCCN(CCCCCC)C(=O)CCCCCCCN(C)CCCCCCCC(=O)N(CCCCCC)CCCCC(=O)OCC(CCCCCC)CCCCCCCC` (centres unmarked) [Compound I-15, Bis(2-Hexyldecyl) 5,5′-((8,8′-(Methylazanediyl)Bis(Octanoyl))Bis(Hexylazanediyl))Dipentanoate], the “Serum IgG (μg/mL) @ 0.3 mg/kg” value stood at 48.2 ± 12.7 µg/mL and the “Serum IgG (μg/mL) @ 1.0 mg/kg” value is 135.0 ± 37.2 µg/mL.

As for `CCCCCCCCC(CCCCCC)COC(=O)CCCCCCCN(CCCCCC)C(=O)CCCCCCN(C)CCCCCCC(=O)N(CCCCCC)CCCCCCCC(=O)OCC(CCCCCC)CCCCCCCC` (centres unmarked) [Compound I-16, Bis(2-Hexyldecyl) 8,8′-((7,7′-(Methylazanediyl)Bis(Heptanoyl))Bis(Hexylazanediyl))Dioctanoate], the “Serum IgG (μg/mL) @ 0.3 mg/kg” value is 37.2 ± 9.7 µg/mL.

For `CCCCCCCCC(CCCCCC)COC(=O)CCCCCCCCN(CCCCCC)C(=O)CCCCCN(C)CCCCCC(=O)N(CCCCCC)CCCCCCCCC(=O)OCC(CCCCCC)CCCCCCCC` (centres unmarked) [Compound I-17, Bis(2-Hexyldecyl) 9,9′-((6,6′-(Methylazanediyl)Bis(Hexanoyl))Bis(Hexylazanediyl))Dinonanoate], the “Serum IgG (μg/mL) @ 0.3 mg/kg” value is 16.0 ± 2.6 µg/mL.

Turning to `CCCCCCCCC(CCCCCC)COC(=O)CCCCCCCN(CCCCCC)C(=O)CCCCN(C)CCCCC(=O)N(CCCCCC)CCCCCCCC(=O)OCC(CCCCCC)CCCCCCCC` (centres unmarked) [Compound I-18, Bis(2-Hexyldecyl) 8,8′-((5,5′-(Methylazanediyl)Bis(Pentanoyl))Bis(Hexylazanediyl))Dioctanoate], the “Serum IgG (μg/mL) @ 0.3 mg/kg” value came to 8.9 ± 4.9 µg/mL and the “Serum IgG (μg/mL) @ 1.0 mg/kg” value stood at 32.4 ± 4.6 µg/mL.

As for `CCCCCCCCC(CCCCCC)COC(=O)CCCCCN(CCCCCC)C(=O)CCCCN(C)CCCCC(=O)N(CCCCCC)CCCCCC(=O)OCC(CCCCCC)CCCCCCCC` (centres unmarked) [Compound I-19, Bis(2-Hexyldecyl) 6,6′-((5,5′-(Methylazanediyl)Bis(Pentanoyl))Bis(Hexylazanediyl))Dihexanoate], the “Serum IgG (μg/mL) @ 0.3 mg/kg” value stood at 12.3 ± 5.2 µg/mL.

`CCCCCCCCC(CCCCCC)COC(=O)CCCCCCCCCN(CCCCCC)C(=O)CCCCCN(C)CCCCCC(=O)N(CCCCCC)CCCCCCCCCC(=O)OCC(CCCCCC)CCCCCCCC` (centres unmarked) [Compound I-22, Bis(2-Hexyldecyl) 10,10′-((6,6′-(Methylazanediyl)Bis(Hexanoyl))Bis(Hexylazanediyl))Bis(Decanoate)]: the “Serum IgG (μg/mL) @ 0.3 mg/kg” value came out at 11.9 ± 5.9 µg/mL.

For `CCCCCCCCC(CCCCCC)COC(=O)CCCCCN(CCCCCC)C(=O)CCCCCCN(C)CCCCCCC(=O)N(CCCCCC)CCCCCC(=O)OCC(CCCCCC)CCCCCCCC` (centres unmarked) [Compound I-24, Bis(2-Hexyldecyl) 6,6′-((7,7′-(Methylazanediyl)Bis(Heptanoyl))Bis(Hexylazanediyl))Dihexanoate], the “Serum IgG (μg/mL) @ 0.3 mg/kg” value was determined as 31.9 ± 6.4 µg/mL.

For the compound `CCCCCCCCC(CCCCCC)COC(=O)CCCCCN(CCCCCC)C(=O)CCCCCCCN(C)CCCCCCCC(=O)N(CCCCCC)CCCCCC(=O)OCC(CCCCCC)CCCCCCCC` (centres unmarked) [Compound I-25, Bis(2-Hexyldecyl) 6,6′-((8,8′-(Methylazanediyl)Bis(Octanoyl))Bis(Hexylazanediyl))Dihexanoate], the “Serum IgG (μg/mL) @ 0.3 mg/kg” value turned out to be 55.3 ± 24.8 µg/mL and the “Serum IgG (μg/mL) @ 1.0 mg/kg” value is 192.4 ± 106.8 µg/mL.

Consider `CCCCCCCCC(CCCCCC)COC(=O)CCCCCN(CCCCCC)C(=O)CCCCCN(C)CCCCCC(=O)N(CCCCCC)CCCCCC(=O)OCC(CCCCCC)CCCCCCCC` (centres unmarked) [Compound I-27, Bis(2-Hexyldecyl) 6,6′-((6,6′-(Methylazanediyl)Bis(Hexanoyl))Bis(Hexylazanediyl))Dihexanoate], for which the “Serum IgG (μg/mL) @ 0.3 mg/kg” value was 15.6 ± 4.7 µg/mL.

In the case of `CCCCCCCCC(CCCCCC)COC(=O)CCCCCN(C(=O)CCCCCCCN(C)CCCCCCCC(=O)N(CCCCCC(=O)OCC(CCCCCC)CCCCCCCC)C(C)C)C(C)C` (centres unmarked) [Compound I-28, Bis(2-Hexyldecyl) 6,6′-((8,8′-(Methylazanediyl)Bis(Octanoyl))Bis(Isopropylazanediyl))Dihexanoate], the “Serum IgG (μg/mL) @ 0.3 mg/kg” value amounted to 13.2 ± 4.3 µg/mL.

Turning to `CCCCCCCCC(CCCCCC)COC(=O)CCN(CCCCCC)C(=O)CCCCCCCN(C)CCCCCCCC(=O)N(CCCCCC)CCC(=O)OCC(CCCCCC)CCCCCCCC` (centres unmarked) [Compound I-32, Bis(2-Hexyldecyl) 3,3′-((8,8′-(Methylazanediyl)Bis(Octanoyl))Bis(Hexylazanediyl))Dipropionate], the “Serum IgG (μg/mL) @ 0.3 mg/kg” value is 70.8 ± 12.3 µg/mL.

`CCCCCCC(CCCC)COC(=O)CCCCCN(CCCCCC)C(=O)CCCCCCCN(C)CCCCCCCC(=O)N(CCCCCC)CCCCCC(=O)OCC(CCCC)CCCCCC` (centres unmarked) [Compound I-33, Bis(2-Butyloctyl) 6,6′-((8,8′-(Methylazanediyl)Bis(Octanoyl))Bis(Hexylazanediyl))Dihexanoate]: the “Serum IgG (μg/mL) @ 0.3 mg/kg” value was 75.8 ± 36.0 µg/mL.

`CCCCCCCCC(CCCCCC)C(=O)OCCCCCCN(CCCCCC)C(=O)CCCCCCCN(CCCCCCCC(=O)N(CCCCCC)CCCCCCOC(=O)C(CCCCCC)CCCCCCCC)CCN(C)C` (centres unmarked) [Compound I-34, ((8,8′-((2-(Dimethylamino)Ethyl)Azanediyl)Bis(Octanoyl))Bis(Hexylazanediyl))Bis(Hexane-6,1-Diyl) Bis(2-Hexyldecanoate)]: the “Serum IgG (μg/mL) @ 0.3 mg/kg” value is 5.0 ± 0.8 µg/mL.
